In patent US11591404B2, “Treatment of cancer using a CD123 chimeric antigen receptor” (Novartis AG, priority 2014, dated 2023):
Entries after “also recorded” stand apart in the source; their conditions may differ.

What was measured:
[1] = system: r/r B-ALL; conditions: cited from earlier work
[2] = system: CART123P2A CD20 cells; assay: Rituximab-mediated cytotoxicity, T cell depletion; type: cell-based; conditions: 100 ug/ml, 48 hours of incubation
Procedure: Rituximab-mediated cytotoxicity was next assessed for the CART123 P2A CD20 cells. CART123 and CART123 P2A CD20 were incubated with Rituximab at various concentrations, 0 μg/ml, 1 μg/ml, 10 μg/ml and 100 μg/ml. Cells were harvested at 0, 4, 12, and 48 hours, and stained for CD3. The percentage of T cell depletion was computed.

[3] = system: CART123 P2A CD20 cells; assay: Rituximab complement dependent cytotoxicity (15% rabbit complement); type: cell-based
Procedure: The mechanism by which the CART123P2ACD20 cell depletion is mediated was investigated. CART123 P2A CD20 cells were incubated with rituximab at different concentrations 0 μg/ml, 1 μg/ml, 10 μg/ml and 100 μg/ml, in the presence of 15% rabbit complement. […] CART123 P2A CD20 cell depletion is mediated by complement dependent cytotoxicity.

[4] = system: luciferase-expressing human AML cell lines (MOLM14, MOLM13, U937) or primary AML specimens; assay: Human AML xenograft models, T cell termination strategies; type: in vivo, mice; conditions: for elimination of CD123-redirected CAR T cells: alemtuzumab 1 or 5 mg/kg IP, rituximab 10 mg/kg IP; for AML proliferation, antibody alone: non-CART123-treated xenograft models vs AML-only controls
Text: Three termination strategies in human AML xenograft models were examined: (1) T cell ablation with the anti-CD52 antibody alemtuzumab after treatment with 1×10^5-1×10^6 T cells lentivirally-transduced with anti-CD123-41BB-CD3zeta CART123, (2) T cell ablation with the anti-CD20 antibody rituximab after treatment with 1×10^5-1×10^6 CART123 engineered to co-express CD20 (CART123/CD20), and (3) treatment with “biodegradable” anti-CD123 mRNA-electroporated CAR T cells (RNA-CART123). Mice engrafted with luciferase-expressing human AML cell lines (MOLM14, MOLM13, U937) or primary AML specimens (n=3) were treated with CD123-redirected CAR T cells as above. The CD123 CAR construct utilized for this experiment is the 1172 construct (SEQ ID NO: 707), and were administered to the mice at week 1. For T cell depletion studies, alemtuzumab 1 or 5 mg/kg was injected intraperitoneally (IP) at week 2, week 3, or week 4 (e.g., 1, 2, or 3 weeks post-CART123) to determine optimal dosing and timing of T cell ablation. In subsequent studies, rituximab 10 mg/kg was injected IP 4 weeks after CART123/CD20, or 1×10^7 RNA-CART123 was injected intravenously at 5, 9, and 16 days after AML engraftment. Mice were followed by weekly bioluminescent imaging and/or quantitative flow cytometry analyses of blood, spleen, and/or bone marrow.

[5] = system: CAR-expressing, transduced T cells; assay: Proliferation of CARTs co-cultured with Nalm-6 cells in the presence of RAD001, 4 days; type: cell-based; conditions: low doses of RAD001, cell culture, 4 days of co-culture
Procedure: CARTs were co-cultured with Nalm-6 cells in the presence of different concentrations of RAD001. The number of CAR-positive CD3-positive T cells (black) and total T cells (gray) was assessed after 4 days of co-culture.

[6] = system: humanized CD19 CART cells; assay: In vivo proliferation of humanized CD19 CART cells with and without RAD001 dosing; conditions: RAD001 0.003 mg/kg daily with huCTL019
Procedure: Circles denote PBS; squares denote huCTL019; triangles denote huCTL019 with 3 mg/kg RAD001; inverted triangles denote huCTL019 with 0.3 mg/kg RAD001; diamonds denote huCTL019 with 0.03 mg/kg RAD001; and circles denote huCTL019 with 0.003 mg/kg RAD001.

[7] = system: huCART19 cells cultured with Nalm-6; assay: CART proliferation in 4 day co-culture with RAD001; type: cell-based, human; conditions: 0.0032 and 0.016 nM RAD001
Procedure: To evaluate the functionality of CARTs, the T cells are thawed and counted, and viability is assessed by Cellometer. The number of CAR-positive cells in each culture is normalized using non-transduced T cells (UTD). The impact of RAD001 on CARTs was tested in titrations with RAD001, starting at 50 nM. The target cell line used in all co-culture experiments is Nalm-6, a human pre-B cell acute lymphoblastic leukemia (ALL) cell line expressing CD19 and transduced to express luciferase.
For measuring the proliferation of CARTs, T cells are cultured with target cells at a ratio of 1:1. The assay is run for 4 days, when cells are stained for CD3, CD4, CD8 and CAR expression. The number of T cells is assessed by flow cytometry using counting beads as reference.

[8] = system: NALM6-luc tumors; assay: NALM6-luc tumor growth under daily oral RAD001; type: in vivo, NSG mice; conditions: daily oral dosing of RAD001 alone
Procedure: NALM6-luc cells: The NALM6 human acute lymphoblastic leukemia (ALL) cell line was developed from the peripheral blood of a patient with relapsed ALL. The cells were then tagged with firefly luciferase. These suspension cells grow in RPMI supplemented with 10% heat inactivated fetal bovine serum.
Mice: 6 week old NSG (NOD.Cg-Prkdc^scidIl2rg^tmIWjl/SzJ) mice were received from the Jackson Laboratory (stock number 005557).
Tumor implantation: NALM6-luc cells were grown and expanded in vitro in RPMI supplemented with 10% heat inactivated fetal bovine serum. The cells were then transferred to a 15 ml conical tube and washed twice with cold sterile PBS. NALM6-luc cells were then counted and resuspended at a concentration of 10×10^6 cells per milliliter of PBS. The cells were placed on ice and immediately (within one hour) implanted in the mice. NALM6-luc cells were injected intravenously via the tail vein in a 100 μl volume, for a total of 1×10^6 cells per mouse.
(§1) RAD001 dosing: A concentrated micro-emulsion of 50 mg equal to 1 mg RAD001 was formulated and then resuspended in D5W (dextrose 5% in water) at the time of dosing. Mice were orally dosed daily (via oral gavage) with 200 μl of the desired doses of RAD001.

[9] = PK analysis of RAD001 in tumor bearing mice; type: in vivo, NSG mice
Procedure: as §1
PK analysis: Mice were dosed daily with RAD001 starting 7 days post tumor implantation. Dosing groups were as follows: 0.3 mg/kg, 1 mg/kg, 3 mg/kg, and 10 mg/kg. Mice were bled on days 0 and 14 following the first and last dose of RAD001, at the following time points for PK analysis: 15 minutes, 30 minutes, 1 hour, 2 hours, 4 hours, 8 hours, 12 hours, and 24 hours.

[10] = system: huCAR19 CAR T cells; assay: CAR T cell expansion in vivo with RAD001 (FACS); design: species or system NSG mice; conditions: lowest doses of RAD001
Procedure: CAR T cell dosing: Mice were administered 5×10^6 CAR T cells 7 days after tumor implantation. Cells were partially thawed in a 37 degree Celsius water bath and then completely thawed by the addition of 1 ml of cold sterile PBS to the tube containing the cells. The thawed cells were transferred to a 15 ml falcon tube and adjusted to a final volume of 10 mls with PBS. The cells were washed twice at 1000 rpm for 10 minutes each time and then counted on a hemocytometer. T cells were then resuspended at a concentration of 50×10^6 CAR T cells per ml of cold PBS and kept on ice until the mice were dosed. The mice were injected intravenously via the tail vein with 100 μl of the CAR T cells for a dose of 5×10^6 CAR T cells per mouse. Eight mice per group were treated either with 100 μl of PBS alone (PBS), or humanized CD19 CAR T cells.
as §1
Based on these doses, huCAR19 CAR T cells were dosed with and without RAD001 to determine the proliferative ability of these cells. The highest dose used was 3 mg/kg based on the levels of RAD001 in the blood 24 hours after dosing. […] Mice were monitored via FACS for T cell expansion.

[11] = system: AML290 cells; assay: Pediatric patient-derived xenograft model; type: in vivo, mice
Procedure: Alemtuzumab treatment was also examined in a second in vivo model, a pediatric patient-derived xenograft model. In this model, mice were injected with AML290 cells. Six weeks after AML engraftment, the mice were administered saline, untransduced T cells, or CART123 cells (represented at week 0). Alemtuzumab was administered at 5 mg/kg to a subset of the mice receiving CART123 cells at week 4. […] Analysis of AML present in different organs of the xenografts after CART123 dosing was determined by flow cytometry.

blinatumomab: bi-specific anti-CD19/CD3 antibody
share of relapses that are CD19-negative [1]: about 30%

Rituximab: anti-CD20 antibody
T cell depletion [2]: direct cytotoxicity
cell depletion with complement ([3]; Rituximab 100 ug/ml): depletion of the majority of CART123 P2A CD20 cells after 4 hours of incubation
cell depletion with complement ([3]; rituximab 1 ug/ml or 10 ug/ml): depletion of the majority of CART123 P2A CD20 cells after 12 hours of incubation
elimination of CD123-redirected CAR T cells [4]: rapidly eliminated T cells while preserving leukemia remission; also recorded: completely eliminated CD123-redirected CAR T cells
AML proliferation, antibody alone [4]: did not inhibit AML proliferation

CO[C@H]1C[C@@H]2CC[C@@H](C)[C@@](O)(O2)C(=O)C(=O)N2CCCC[C@H]2C(=O)O[C@H]([C@H](C)C[C@@H]2CC[C@@H](OCCO)[C@H](OC)C2)CC(=O)[C@H](C)/C=C(\C)[C@@H](O)[C@@H](OC)C(=O)[C@H](C)C[C@H](C)/C=C/C=C/C=C/1C [RAD001, (1R,9S,12S,15R,16E,18R,19R,21R,23 S,24E,26E,28E,30S,32S,35R)-1,18-dihydroxy-12-{(1R)-2-[(1S,3R,4R)-4-(2-hydroxyethoxy)-3-methoxycyclohexyl]-1-methylethyl}-19,30-dimethoxy-15,17,21,23,29,35-hexamethyl-11,36-dioxa-4-aza-tricyclo[30.3.1.04,9]hexatriaconta-16,24,26,28-tetraene-2,3,10,14,20-pentaone]
proliferation of CAR-expressing, transduced T cells [5]: enhanced
CART cell proliferation in vivo [6]: enhancement in CART cell proliferation
proliferation of huCART19 cells [7]: proliferation was higher than observed without the addition of RAD001
growth of NALM6-luc tumors [8]: did not have an impact on the growth of NALM6-luc tumors
concentration of RAD001 ([9]; 24 hours after the final dose): above 10 nM
concentration at 24 h ([9]; NSG, mouse, blood, oral, 24 hours after dosing, 0.3 mg/kg, day 0 and day 14, read-out: RAD001 concentrations in the blood): > 10 nM
stability in the blood ([9]; tumor bearing mice): fairly stable in the blood
proliferation of the CAR T cells in vivo [10]: enhanced proliferation of the CAR T cells

alemtuzumab: anti-CD52 antibody
elimination of CD123-redirected CAR T cells [4]: rapidly eliminated CART123 cells
elimination of CD123-redirected CAR T cells ([4]; listed as Alemtuzumab): completely eliminated CD123-redirected CAR T cells
overall survival by timing of ablation ([4]; alemtuzumab at week 3 or week 4 vs week 2): improved survival
AML proliferation, antibody alone [4]: did not inhibit AML proliferation
AML cells in spleen and bone marrow (flow cytometry) ([11]; AML290): sustained ablation of AML cells in the spleen
tumor progression / remission ([11]; AML290): remained in remission
elimination of CART123 T cells in the peripheral blood ([11]; alemtuzumab 5 mg/kg at week 4): completely eliminate CART123 T cells in the peripheral blood
